In patent US10214490B2, “Picolinamides as fungicides” (Dow AgroSciences LLC, priority 2016, dated 2019):
Read-outs that look alike come from different tables or passages of the source.

Experiments:
Format in all cases: in vivo
Zymoseptoria tritici = experiment: Fungicidal activity: leaf blotch of wheat (SEPTTR), disease control on wheat seedlings; conditions: for pest or weed control at 100 ppm / pest or weed control at 121.5 g/ha: Zymoseptoria tritici
Experimental: Technical grades of materials were dissolved in acetone, which were then mixed with nine volumes of water containing 110 ppm Triton X-100. The fungicide solutions were applied onto wheat seedlings using an automated booth sprayer to run-off. All sprayed plants were allowed to air dry prior to further handling. All fungicides were evaluated using the aforementioned method for their activity vs. all target diseases, unless stated otherwise. Wheat leaf blotch and brown rust activity were also evaluated using track spray applications, in which case the fungicides were formulated as EC formulations, containing 0.1% Trycol 5941 in the spray solutions. Wheat plants (variety Yuma) were grown from seed in a greenhouse in 50% mineral soil/50% soil-less Metro mix until the first leaf was fully emerged, with 7-10 seedlings per pot. These plants were inoculated with an aqueous spore suspension of Zymoseptoria tritici either prior to or after fungicide treatments. After inoculation the plants were kept in 100% relative humidity (one day in a dark dew chamber followed by two to three days in a lighted dew chamber at 20° C.) to permit spores to germinate and infect the leaf. The plants were then transferred to a greenhouse set at 20° C. for disease to develop. When disease symptoms were fully expressed on the 1st leaves of untreated plants, infection levels were assessed on a scale of 0 to 100 percent disease severity. Percent disease control was calculated using the ratio of disease severity on treated plants relative to untreated plants.

Puccinia triticina = experiment: Fungicidal activity: wheat brown rust (PUCCRT), disease control on wheat seedlings
Experimental: Technical grades of materials were dissolved in acetone, which were then mixed with nine volumes of water containing 110 ppm Triton X-100. The fungicide solutions were applied onto wheat seedlings using an automated booth sprayer to run-off. All sprayed plants were allowed to air dry prior to further handling. All fungicides were evaluated using the aforementioned method for their activity vs. all target diseases, unless stated otherwise. Wheat leaf blotch and brown rust activity were also evaluated using track spray applications, in which case the fungicides were formulated as EC formulations, containing 0.1% Trycol 5941 in the spray solutions. Wheat plants (variety Yuma) were grown from seed in a greenhouse in 50% mineral soil/50% soil-less Metro mix until the first leaf was fully emerged, with 7-10 seedlings per pot. These plants were inoculated with an aqueous spore suspension of Puccinia triticina either prior to or after fungicide treatments. After inoculation the plants were kept in a dark dew room at 22° C. with 100% relative humidity overnight to permit spores to germinate and infect the leaf. The plants were then transferred to a greenhouse set at 24° C. for disease to develop. Fungicide formulation, application and disease assessment followed the procedures as described in the Example A. Results of the evaluations are shown below in Table 4.

Phakopsora pachyrhizi = experiment: Fungicidal activity: Asian soybean rust (PHAKPA), disease control on soybean seedlings; conditions: High Volume at 25 ppm
Experimental: Technical grades of materials were dissolved in acetone, which were then mixed with nine volumes of water containing 0.011% Tween 20. The fungicide solutions were applied onto soybean seedlings using an automated booth sprayer to run-off. All sprayed plants were allowed to air dry prior to further handling.
Soybean plants (variety Williams 82) were grown in soil-less Metro mix, with one plant per pot. Two weeks old seedlings were used for testing. Plants were inoculated either 3 days prior to or 1 day after fungicide treatments. Plants were incubated for 24 h in a dark dew room at 22° C. and 100% relative humidity then transferred to a growth room at 23° C. for disease to develop. Disease severity was assessed on the sprayed leaves.

[1] = HV activity at 100 ppm, 3 Day Curative
[2] = 24 h, LV activity at 121.5 g/H, 1 Day Protectant, read-out: SEPTTR 1DP disease control rating
[3] = 72 h, LV activity at 121.5 g/H, 3 Day Curative, read-out: SEPTTR 3DC disease control rating
[4] = Puccinia triticina, 24 h, LV activity at 121.5 g/H, 1 Day Protectant, read-out: PUCCRT 1DP disease control rating
[5] = Puccinia triticina, 72 h, LV activity at 121.5 g/H, 3 Day Curative, read-out: PUCCRT 3DC disease control rating
[6] = 24 h, 1 Day Protectant, read-out: PHAKPA 1DP disease control rating
[7] = 72 h, 3 Day Curative, read-out: PHAKPA 3DC disease control rating
[8] = LV activity at 121.5 g/H, 3 Day Curative
[9] = HV activity at 100 ppm, 1 Day Protectant

Structure (SMILES)	pest or weed control at 121.5 g/ha (Zymoseptoria tritici; [2]) [%]	pest or weed control at 121.5 g/ha (Zymoseptoria tritici; [3]) [%]	pest or weed control at 121.5 g/ha (Puccinia triticina; [4]) [%]	pest or weed control at 121.5 g/ha (Puccinia triticina; [5]) [%]	pest or weed control at 25 ppm (Phakopsora pachyrhizi; [6]) [%]	pest or weed control at 25 ppm (Phakopsora pachyrhizi; [7]) [%]	other results
COc1cc(F)ccc1[C@@H](Sc1ccccc1)[C@H](C)OC(=O)[C@H](C)NC(=O)c1nccc(OC)c1O [Compound 40]	–	–	–	–	–	–	pest or weed control at 100 ppm (Zymoseptoria tritici; 24 h, HV activity at 100 ppm, 1 Day Protectant, read-out: SEPTTR 1DP disease control rating): > 80%; pest or weed control at 100 ppm (Zymoseptoria tritici; 72 h, HV activity at 100 ppm, 3 Day Curative, read-out: SEPTTR 3DC disease control rating): > 80%; PUCCRT 3DC disease control rating (Puccinia triticina; [1]): A (>80); pest or weed control at 100 ppm (Puccinia triticina; Puccinia triticina, 24 h, HV activity at 100 ppm, 1 Day Protectant, read-out: PUCCRT 1DP disease control rating): > 80%
COc1ccnc(C(=O)N[C@@H](C)C(=O)O[C@@H](C)[C@@H](c2ccccc2)S(=O)(=O)c2ccc(C(F)(F)F)cn2)c1OC(C)=O [Compound 71]	≤ 80	≤ 80	≤ 0	≤ 80	≤ 80	≤ 80	–
COc1ccnc(C(=O)N[C@@H](C)C(=O)O[C@@H](C)[C@H](Sc2ccc(F)cc2C)c2ccccc2)c1OC(C)=O [Compound 83]	≤ 80	–	–	≤ 0	–	–	SEPTTR 3DC disease control rating (Zymoseptoria tritici; [8]): D (≤0)
COc1ccnc(C(=O)N[C@@H](C)C(=O)O[C@@H](C)[C@H](Sc2ccccc2)c2ccccc2)c1OC(=O)OC(=O)C(C)C [Compound 79]	> 80	> 80	> 80	≤ 80	≤ 80	≤ 80	–
COc1cc(F)ccc1[C@@H](Sc1ccccc1)[C@H](C)OC(=O)[C@H](C)NC(=O)c1nccc(OC)c1O [Compound 57]	–	–	–	–	–	–	SEPTTR 1DP disease control rating (Zymoseptoria tritici; [9]): B (≤80); SEPTTR 3DC disease control rating (Zymoseptoria tritici; [1]): A (>80); PUCCRT 1DP disease control rating (Puccinia triticina; [9]): A (>80); PUCCRT 3DC disease control rating (Puccinia triticina; [1]): D (≤0)
COc1ccnc(C(=O)N[C@@H](C)C(=O)O[C@@H](C)[C@H](Sc2ccccc2)c2ccccc2)c1OC(=O)OC(C)=O [Compound 80]	≤ 80	≤ 80	> 80	≤ 80	≤ 80	≤ 80	–
COc1cc(F)ccc1[C@@H](Sc1ccccc1)[C@H](C)OC(=O)[C@H](C)NC(=O)c1nccc(OC)c1OC(C)=O [Compound 84]	–	–	–	–	–	–	PUCCRT 3DC disease control rating (Puccinia triticina; [8]): B (≤80)
COc1cc(F)ccc1[C@@H](Sc1ccccc1)[C@H](C)OC(=O)[C@H](C)NC(=O)c1nccc(OC)c1OC(C)=O [Compound 59]	≤ 80	≤ 80	> 80	–	–	–	–
COc1ccnc(C(=O)N[C@@H](C)C(=O)O[C@@H](C)[C@@H](c2ccccc2)S(=O)(=O)c2ccc(C)cc2)c1OC(C)=O [Compound 66]	> 80	≤ 80	≤ 80	≤ 80	≤ 80	≤ 80	–
COc1ccnc(C(=O)N[C@@H](C)C(=O)O[C@@H](C)[C@H](Sc2ccccc2)c2ccc(F)cc2)c1OC(C)=O [Compound 85]	–	–	–	≤ 0	≤ 80	≤ 0	SEPTTR 1DP disease control rating (Zymoseptoria tritici; LV activity at 121.5 g/H, 1 Day Protectant): B (≤80); SEPTTR 3DC disease control rating (Zymoseptoria tritici; [8]): D (≤0)
